Experimental data reported in patent US4029650A, “Novel derivatives of N-(3,4,5-trimethoxy cinnamoyl)piperazine and the process for preparing them” (priority 1974, dated 1977).
Where a name gives a salt, the structure may show the parent alone. Read-outs that look alike come from different tables or passages of the source.

How the values were obtained:
[1] = Peripheral vasodilatory action: increase of femoral artery flow, anaesthetised dog, intra-arterial; format: in vivo; conditions: 500 μg/kg (0.5 mg/kg) i.a.
[2] = Coronary vasodilatory action: increase of flow in the anterior interventricular artery, anaesthetised dog, intravenous; format: in vivo
[3] = Antihypertensive properties in genetically hypertensive (vigil SHR) rat; format: in vivo; conditions: for Hypertensive action (vigil SHR rat), effect: 100 mg/kg p.o.
Acute toxicity (mouse) = conditions: in vivo; for LD50: read-out: Acute toxicity (DL 50) (converted); for mortality: read-out: Percentage mortality
[4] = Increase of flow and oxygenation of the coronary veinous sinus, intravenous perfusion; format: in vivo, dog
Experimental: Furthermore, administered by intravenous perfusion, the derivatives of formula I are capable of increasing the flow and oxygenation of the coronary veinous sinus, the flow of the coronary veinous sinus being measured volumetrically by means of a modified MORAWITZ probe, whilst the oxygen content of the coronary veinous blood is calculated from the rate of hemoglobin saturation measured by hemoreflectometry.

[5] = Cerebral vasodilatory properties: sub-cortical irrigation, anaesthetised cat; format: in vivo; conditions: 8 mg/kg i.v.
Description: Administered to an anaesthetised cat by single intravenous injection, the derivatives of formula I are capable of increasing the sub-cortical irrigation measured according to a technique derived from the thermoconductimetric method of SEYLAZ.

[6] = 12.5 mg/kg i.v. perfused in 10 min. (1 ml/min)
[7] = anaesthetised dog, 4 mg/kg i.v.
[8] = 17.5 mg/kg intravenous perfusion
[9] = 100 mg/kg po, genetically hypertensive rat
[10] = anaesthetised dog, 2 mg/kg i.v.
[11] = 12.7 mg/kg intravenous perfusion

For `COc1cc(C=CC(=O)N2CCN(CC(=O)N3CCCC3)CC2)cc(OC)c1OC` [67 350, reference compound], the “duration of increase of femoral artery flow” value [1] was 12 min, the “increase of femoral artery flow” value [1] was 82% and the “duration of increase of flow in the anterior interventricular artery” value (shortened to “duration of increase of flow”) [2, 6] was 60 min. For the same compound, the “increase of flow in the anterior interventricular artery” value [2, 6] was 59%, the “Hypertensive action (vigil SHR rat), effect” value ([3]; 4 h) was -40% and the “Hypertensive action (vigil SHR rat), effect” value ([3]; 24 h) was -20%. The LD50 (Acute toxicity (mouse); iv, mouse, i.v.) was 617 mg/kg, the LD50 (Acute toxicity (mouse); po, mouse, p.o.) was 1000 mg/kg and the mortality (Acute toxicity (mouse); mouse, iv, 617 mg/kg, intravenously (mouse), 617 mg/kg) was 50%. It also gave a mortality (Acute toxicity (mouse); mouse, po, 1000 mg/kg, orally (mouse), 1 000 mg/kg) of 50%.
With `COc1cc(C=CC(=O)N2CCN(CC(=O)N3CCCCC3)CC2)cc(OC)c1OC.O=C(O)/C=C\C(=O)O` [74 0479, N-(3,4,5-trimethoxycinnamoyl)-N'-(piperidinocarbonylmethyl) piperazine maleate] the “duration of increase of femoral artery flow” value [1] was 3 min, the “increase of femoral artery flow” value [1] was 120% and the “duration of increase of flow” value [2, 7] was 40 min. For the same compound, the “increase of flow in the anterior interventricular artery” value [2, 7] was 190%, the “Increase of flow of the coronary veinous sinus” value [4, 8] was 50% and the “Increase of oxygenation of the coronary veinous sinus” value [4, 8] was 132%. The “duration of effect on flow of the coronary veinous sinus” value [4, 8] was 15 min, the “duration of effect on oxygenation of the coronary veinous sinus” value [4, 8] was 30 min and the “duration of increase in the sub-cortical flow” value [5] was 47 min. For the same compound, the “increase in the sub-cortical flow” value [5] was 58%, the “animals with systolic arterial pressure lowered by 30 mmHg” value [3, 9] was 60% and the “duration of lowering of the systolic arterial pressure” value [3, 9] was “exceeding 24 hours”. For the same compound, the “lowering of the systolic arterial pressure” value ([3]; 100 mg/kg po, genetically hypertensive rat, in 60% of the animals) was 30 mmHg, the LD50 (Acute toxicity (mouse); iv, mouse, i.v.) was 700 mg/kg and the LD50 (Acute toxicity (mouse); po, mouse, p.o.) was 2250 mg/kg. It also gave a mortality (Acute toxicity (mouse); mouse, iv, 700 mg/kg, intravenously (mouse), 700 mg/kg) of about 50% and a mortality (Acute toxicity (mouse); mouse, po, 250 mg/kg, orally (mouse), 2 250 mg/kg) of 50%.
In the case of `COc1cc(C=CC(=O)N2CCN(CC(=O)N3CCCCCCC3)CC2)cc(OC)c1OC` [74 0678, N-(3,4,5-trimethoxycinnamoyl)-N'-(heptamethyleniminocarbonylmethyl) piperazine oxalate], the “duration of increase of femoral artery flow” value [1] is reported as 4.5 min, the “increase of femoral artery flow” value [1] is reported as 226% and the “duration of increase of flow” value [2, 10] is reported as 8.3 min. The “increase of flow in the anterior interventricular artery” value [2, 10] was 148%, the “Increase of flow of the coronary veinous sinus” value [4, 11] was 65% and the “Increase of oxygenation of the coronary veinous sinus” value [4, 11] was 162%. The “duration of effect on flow of the coronary veinous sinus” value [4, 11] was 30 min, the “duration of effect on oxygenation of the coronary veinous sinus” value [4, 11] was 60 min and the “duration of increase in the sub-cortical flow” value [5] was 5 min. For the same compound, the “increase in the sub-cortical flow” value [5] was 45%, the mortality (Acute toxicity (mouse); iv, intravenously (mouse), 255 mg/kg) was about 50% and the LD50 (Acute toxicity (mouse); iv, mouse, i.v.) was 255 mg/kg.
For `COc1cc(C=CC(=O)N2CCN(CC(=O)N3CCc4ccccc4C3)CC2)cc(OC)c1OC` [75 0001, N-(3,4,5-trimethoxycinnamoyl)-N'-(1,2,3,4-tetrahydroisoquinolinocarbonylmethyl)piperazine], the “duration of increase of femoral artery flow” value [1] was 7 min, the “increase of femoral artery flow” value [1] was 106% and the “duration of increase of flow” value [2, 7] was 19 min. For the same compound, the “increase of flow in the anterior interventricular artery” value [2, 7] was 45%, the “Increase of flow of the coronary veinous sinus” value ([4]; 29 mg/kg intravenous perfusion) was 88% and the “Increase of oxygenation of the coronary veinous sinus” value ([4]; 29 mg/kg intravenous perfusion) was 142%. The “duration of effect on flow of the coronary veinous sinus” value ([4]; 29 mg/kg intravenous perfusion) was 15 min, the “duration of effect on oxygenation of the coronary veinous sinus” value ([4]; 29 mg/kg intravenous perfusion) was 60 min and the “duration of increase in the sub-cortical flow” value [5] was 22 min. For the same compound, the “increase in the sub-cortical flow” value [5] was 105%, the mortality (Acute toxicity (mouse); iv, intravenously (mouse), 580 mg/kg) was about 50% and the LD50 (Acute toxicity (mouse); iv, mouse, i.v.) was 580 mg/kg.
In the case of `COc1ccc(CCN(C)C(=O)CN2CCN(C(=O)C=Cc3cc(OC)c(OC)c(OC)c3)CC2)cc1OC` [75 0002, N-(3,4,5-trimethoxycinnamoyl)-N'-[N"-methyl N"-(3,4-dimethoxyphenylethyl)aminocarbonylmethyl] piperazine], the “duration of increase of femoral artery flow” value [1] is reported as 8 min, the “increase of femoral artery flow” value [1] is reported as 105% and the “duration of increase of flow” value [2, 7] is reported as 19 min. For the same compound, the “increase of flow in the anterior interventricular artery” value [2, 7] was 100%, the “Increase of flow of the coronary veinous sinus” value ([4]; 20 mg/kg intravenous perfusion) was 124% and the “Increase of oxygenation of the coronary veinous sinus” value ([4]; 20 mg/kg intravenous perfusion) was 214%. The “duration of effect on flow of the coronary veinous sinus” value ([4]; 20 mg/kg intravenous perfusion) was 15 min, the “duration of effect on oxygenation of the coronary veinous sinus” value ([4]; 20 mg/kg intravenous perfusion) was 60 min and the mortality (Acute toxicity (mouse); iv, intravenously (mouse), 200 mg/kg) was about 50%. It also gave an LD50 (Acute toxicity (mouse); iv, mouse, i.v.) of 200 mg/kg, an LD50 (Acute toxicity (mouse); po, mouse, p.o.) of 2000 mg/kg and a mortality (Acute toxicity (mouse); mouse, po, 2000 mg/kg, orally (mouse), 2 000 mg/kg) of 30%.
